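Five compound concentrations were applied to cells in 96-well plates for 48 hours; endpoints were derived by simple linear interpolation of the resulting dose-response curve. At the GI50, growth is halved.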 Active and inactive are the calls of the source. No stated cut-off is given here; in the data, active = GI50 up to about 1.1 µM and inactive = higher.
Experiments:
Experiment in all cases: NCI-60 cell line screen, 48 h
[1] = system: 786-0
[2] = system: A498
[3] = system: A549
[4] = system: ACHN
[5] = system: CAKI-1
[6] = system: CCRF-CEM
[7] = system: COLO 205
[8] = system: DLD-1
[9] = system: DMS-114
[10] = system: HCC 2998
[11] = system: HCT-116
[12] = system: HCT-15
[13] = system: HL-60
[14] = system: HOP-18
[15] = system: HOP-62
[16] = system: HT-29
[17] = system: IGROV-1
[18] = system: K562
[19] = system: KM-20L2
[20] = system: KM12
[21] = system: LOX IMVI
[22] = system: M14
[23] = system: MOLT-4
[24] = system: Malme-3M
[25] = system: NCI-H226
[26] = system: NCI-H23
[27] = system: NCI-H460
[28] = system: NCI-H522
[29] = system: OVCAR-3
[30] = system: OVCAR-4
[31] = system: OVCAR-5
[32] = system: OVCAR-8
[33] = system: RPMI-8226
[34] = system: RXF 393
[35] = system: SF-268
[36] = system: SF-295
[37] = system: SF-539
[38] = system: SK-MEL-28
[39] = system: SK-MEL-2
[40] = system: SK-MEL-5
[41] = system: SK-OV-3
[42] = system: SN12C
[43] = system: SNB-19
[44] = system: SNB-75
[45] = system: SNB-78
[46] = system: SW-620
[47] = system: TK-10
[48] = system: U-251
[49] = system: UACC-257
[50] = system: UACC-62
[51] = system: UO-31

## CC(=O)OC1c2ccccc2CCCCCCC12OCCO2 (stereo unspecified)
[1]
  GI50: > 100 µM (inactive)
[2]
  GI50: > 100 µM (inactive)
[3]
  GI50: > 100 µM (inactive)
[4]
  GI50: > 100 µM (inactive)
[5]
  GI50: 51.9 µM (inactive)
[6]
  GI50: > 100 µM (inactive)
[7]
  GI50: > 100 µM (inactive)
[8]
  GI50: > 100 µM (inactive)
[9]
  GI50: 61.5 µM (inactive)
[10]
  GI50: > 100 µM (inactive)
[11]
  GI50: > 100 µM (inactive)
[12]
  GI50: 68.1 µM
[13]
  GI50: 44.3 µM (inactive)
[14]
  GI50: > 100 µM (inactive)
[15]
  GI50: > 100 µM (inactive)
[16]
  GI50: > 100 µM (inactive)
[17]
  GI50: > 100 µM (inactive)
[18]
  GI50: 55.2 µM (inactive)
[19]
  GI50: > 100 µM (inactive)
[20]
  GI50: > 100 µM (inactive)
[21]
  GI50: > 100 µM (inactive)
[22]
  GI50: 86.5 µM (inactive)
[23]
  GI50: 60.3 µM (inactive)
[24]
  GI50: 92.5 µM (inactive)
[25]
  GI50: > 100 µM (inactive)
[26]
  GI50: > 100 µM (inactive)
[27]
  GI50: > 100 µM (inactive)
[28]
  GI50: 50.9 µM (inactive)
[29]
  GI50: 33 µM (inactive)
[30]
  GI50: > 100 µM (inactive)
[31]
  GI50: > 100 µM (inactive)
[32]
  GI50: > 100 µM (inactive)
[33]
  GI50: 48.3 µM (inactive)
[34]
  GI50: > 100 µM (inactive)
[35]
  GI50: > 100 µM (inactive)
[36]
  GI50: > 100 µM (inactive)
[37]
  GI50: > 100 µM (inactive)
[38]
  GI50: > 100 µM (inactive)
[39]
  GI50: > 100 µM (inactive)
[40]
  GI50: 55.5 µM (inactive)
[41]
  GI50: > 100 µM (inactive)
[42]
  GI50: > 100 µM (inactive)
[43]
  GI50: > 100 µM (inactive)
[44]
  GI50: > 100 µM (inactive)
[45]
  GI50: > 100 µM (inactive)
[46]
  GI50: > 100 µM (inactive)
[47]
  GI50: > 100 µM (inactive)
[48]
  GI50: > 100 µM (inactive)
[49]
  GI50: 55.5 µM (inactive)
[50]
  GI50: > 100 µM (inactive)
[51]
  GI50: > 100 µM (inactive)
